Data as given in paper PMC9767416, “Discovery of small molecule mechanistic target of rapamycin inhibitors as anti-aging and anti-cancer therapeutics” (Frontiers in Aging Neuroscience, 2022).

What was measured:
[1] = test system: docetaxel (DTX)-induced senescent BJ cells; test: Crystal violet and resazurin assays in docetaxel-induced senescent BJ; assay type: cell-based, human
Experimental: To obtain ionizing radiation (IR)-induced senescent cells, proliferating RPE-1 cells were exposed to a single dose of X-rays (20 Gy) using Pantak HF160 (Gulmay, Surrey, UK) X-ray instrument equipped with Pantak Seifert HF320 generator, MXR-161 X-ray tube (Comet AG, Flamatt, Switzerland), and an aluminum filter using current 1–10 mA. After irradiation, the cells were cultured for an additional 7 days until the development of the senescent phenotype ([Salovska et al., 2022]). To induce docetaxel-induced senescence (DIS), BJ cells were exposed to 5 nM docetaxel for 7 days, as described previously ([Sapega et al., 2018]). […]
For the crystal violet assay, the cells were washed twice with 150 μL PBS and stained with 30 μL 0.5% (w/v) crystal violet in 20% methanol for 15 mins. […] The absorbance was read at 595 nm using a microplate reader (Envision, PerkinElmer, Waltham, MA, USA). The absorbance of crystal violet in treated cells was expressed as a percentage of absorbance in untreated cells. Each condition was measured at least in triplicate.
For the resazurin assay, 200 μL of the culture medium of each well was exchanged for 100 μL of resazurin (stock solution 30 mg/mL; Sigma, St. Louis, MO, USA) diluted 10 times in the culture medium, and the cells were incubated at 37°C for 1–3 h. Reading of fluorescence was done using a microplate reader (PerkinElmer, Waltham, MA, USA). […]

[2] = test system: mTORC2 substrate AKT (Ser473 phosphorylation); test: Immunoblot of phospho-AKT (Ser473), mTORC2 activity in cells; assay type: cell-based, human; conditions: 100 μM; for AKT phosphorylation relative to control cells: after 5 h
Text: For immunoblotting, the following primary and secondary antibodies were used: rabbit polyclonal p70 S6 kinase (#9202), rabbit monoclonal phospho-p70 S6 kinase (Thr389) ([…]), rabbit monoclonal AKT kinase (#4691), rabbit monoclonal phospho-AKT kinase (Ser473) ([…]) obtained from Cell Signaling Technology, Inc., Danvers MA, USA; p21waf1 (sc-56335) obtained from Santa Cruz Biotechnology, Inc., Dallas, TX, USA and mouse monoclonal anti-GAPDH (GTX3066) purchased from GeneTex, Inc., Irvine, CA, USA; goat anti-mouse (170-6516) or anti-rabbit IgG (H + L)-HRP conjugate (170-6515) purchased from BioRad, Hercules, CA, USA.
Cells were harvested 1 and 5 h after treatment. Cells were washed with PBS, harvested into SDS sample lysis buffer (SLB; 2% SDS, 63 mM Tris–HCl, pH 6.8, and 10% glycerol), sonicated, and centrifuged. Protein concentration was determined by BCA assay (Pierce Biotechnology, Rockford, IL, USA); samples were adjusted to equal protein amount (40 μg) with SLB containing dithiothreitol (1% final conc.) and bromophenol blue (0.02% final conc.), and separated by SDS–PAGE in Tris-glycine-SDS buffer (BioRad, 1610772). Proteins were electrotransferred onto a nitrocellulose membrane (0.45 μm NC, Amersham™, GE Healthcare Life Sciences) using wet transfer in Tris-glycine buffer (BioRad, 1810704) with 10% methanol (Sigma, 59304). After blocking with 5% non-fat milk in PBS/Tween-20, proteins were detected using specific antibodies and horseradish peroxidase (HRP)-conjugated secondary antibodies. Peroxidase activity was detected by ECL detection reagents (Thermo Fisher Scientific, Waltham, MA, USA).
BJ, RPE-1, U87, U373, T98, A172, MDA-MB-231, H1299, and DU-145 cells were exposed to compound 3 (100 μM) for 1 and 5 h and the level of AKT serine 473 (Ser473) phosphorylation was assayed by immunoblotting. […] However, in several cell types (BJ, RPE-1, MDA-MB-231, H1299, and DU-145), the AKT phosphorylation was higher after 5 h of exposure than in control cells (Figure 11).

[3] = CNS MPO desirability score; conditions: from experimental and calculated data, method of Wager et al. (2016); scale 0-6
Experimental: ACDLAbs PhysChem Suite 14.0 software (Advanced Chemistry Development, Inc., Toronto, ON, Canada) was used for the calculation of Mw, tPSA, and HBD values. The CNS MPO score calculation method was described by [Wager et al. (2016)].
Central nervous system multiparameter optimization desirability score was calculated as described by [Wager et al. (2016)], utilizing all collected experimental and calculated data. This scoring tool was set on ranges of desirable property space and linear transformational functions with values between 0 and 1 (defined as T0 for each property). Rating each parameter equally, the collective score ranges from 0 to 6, while a score higher than 4 is desirable ([Rankovic, 2015]).

TMZ-U87 cells = test: Time-lapse microscopy with annexin V of TMZ-induced senescent U87; assay type: cell-based, human; conditions: 0–100 μM, 72 h
Experimental: To obtain ionizing radiation (IR)-induced senescent cells, proliferating RPE-1 cells were exposed to a single dose of X-rays (20 Gy) using Pantak HF160 (Gulmay, Surrey, UK) X-ray instrument equipped with Pantak Seifert HF320 generator, MXR-161 X-ray tube (Comet AG, Flamatt, Switzerland), and an aluminum filter using current 1–10 mA. After irradiation, the cells were cultured for an additional 7 days until the development of the senescent phenotype ([Salovska et al., 2022]). To induce docetaxel-induced senescence (DIS), BJ cells were exposed to 5 nM docetaxel for 7 days, as described previously ([Sapega et al., 2018]). To prepare temozolomide (TMZ)-induced senescence, U87 cells were exposed to 100 μM TMZ for 14 days.
For auto-monitoring of cells, Incucyte SX1 Live-Cell Analysis System (Sartorius, Göttingen, Germany), located in an incubator maintained at 37°C under a 5% CO2 atmosphere and 95% humidity, was utilized. The images (1,408 × 1,040 pixels at 1.24 microns/pixel) were acquired using a 10× objective lens in phase contrast, red fluorescence (excitation: 585 ± 20 nm, emission: 635 [625, 705] nm, acquisition time: 100 ms) channels every 60 min during 72 h. The first image was acquired 30 min after adding compounds. The images were processed to measure cell confluence using Incucyte software (version 2022A). […]

Structure (SMILES): Nc1ccc(C(=O)Nc2cccc(-c3c[nH]c4ncccc34)c2)cc1O [Compound 3, N-(3-(1H-pyrrolo[2,3-b]pyridin-3-yl)phenyl)-4-amino-3-hydroxybenzamide]
- selectivity for senescent versus proliferating cells ([1]; DIS-BJ vs proliferating BJ, crystal violet and resazurin): non-selective manner
- sensitivity of senescent cells (crystal violet and resazurin) ([1]; DTX-induced senescent BJ, 0–100 μM, 24 h): significantly sensitive
- effect on Ser473 AKT phosphorylation ([2]; A172, after 1 h): Transient inhibition
- effect on Ser473 AKT phosphorylation ([2]; BJ, after 1 h): Transient inhibition
- AKT phosphorylation relative to control cells ([2]; BJ): higher
- effect on Ser473 AKT phosphorylation ([2]; DU-145, after 1 h): Transient inhibition
- AKT phosphorylation relative to control cells ([2]; DU-145): higher
- effect on Ser473 AKT phosphorylation ([2]; H1299, after 1 h): Transient inhibition
- AKT phosphorylation relative to control cells ([2]; H1299): higher
- effect on Ser473 AKT phosphorylation ([2]; MDA-MB-231, after 1 h): Transient inhibition
- AKT phosphorylation relative to control cells ([2]; MDA-MB-231): higher
- effect on Ser473 AKT phosphorylation ([2]; RPE-1, after 1 h): Transient inhibition
- AKT phosphorylation relative to control cells ([2]; RPE-1): higher
- effect on Ser473 AKT phosphorylation ([2]; T98, after 1 h): Transient inhibition
- rank of the inhibitory effect on Ser473 AKT phosphorylation among cell lines ([2]; T98, after 1 h, inhibitory level kept after 5 h): most potent inhibitory effect
- effect on Ser473 AKT phosphorylation ([2]; U87, after 1 h): Transient inhibition
- effect on Ser473 AKT phosphorylation ([2]; U373, after 1 h): Transient inhibition
- MPO (CNS MPO score) [3]: 4.5
- cell phenotype in time-lapse microscopy, annexin V staining (TMZ-U87 cells): loss of cell adhesion followed by cell death
